Type in all cases: cell-based
Assay [1] relates to SARS-CoV-2 A2.5 variant (M2169). To be noted: for % inhibition Calu-3 A2.5 MOI 0.01: at MNCC, 48 h, mean 2x.
Assay [2] deals with SARS-CoV-2 Delta variant.
Assay [3] relates to SARS-CoV-2 A2.5 variant. Nature of the assay: microbe, parasite or virus in culture.
The test system of assay [4] is SARS-CoV-2 Delta variant (SEQ203). Conditions: for % inhibition Vero E6 Delta MOI 0.0001 / % inhibition Vero E6 Delta MOI 0.01: at MNCC, 48 h; for % inhibition Vero E6 Delta MOI 0.0001: 1x; for % inhibition Vero E6 Delta MOI 0.01: mean 2x.
For assay [5], the system named is SARS-CoV-2 Delta variant. This is another data set of the same source.
Assay [6] relates to SARS-CoV-2 A2.5 variant.
Assay [7] deals with SARS-CoV-2 A2.5 variant (M2169). Conditions: for % inhibition Vero E6 A2.5 MOI 0.01: at MNCC, 48 h, 1x.
For assay [8], the system named is SARS-CoV-2 Delta variant (SEQ203). Conditions: at MNCC, 48 h, 1x.
Where [9] appears, read: Severe acute respiratory syndrome coronavirus 2, Vero C1008, 72 h, read-out: IC50%.
Where [10] appears, read: Severe acute respiratory syndrome coronavirus 2, Vero C1008, 72 h, read-out: IC50% in µg/mL.
The mark [11] stands for this setting: Severe acute respiratory syndrome coronavirus 2, Vero C1008, read-out: IC50 (Figure 4 curve).
Setting [12] is: Severe acute respiratory syndrome coronavirus 2, Vero C1008, read-out: IC90%.
Where [13] appears, read: Severe acute respiratory syndrome coronavirus 2, Vero C1008, read-out: IC90% in µg/mL.

≈ marks a conversion by molar mass, not a printed value. Counter-ions that a name gives are not always drawn. Like-named read-outs stand apart in the source and are kept apart here. Where only a bound is given, the exact number is not on record here.

For `CCN(CC)CCCC(C)Nc1ccnc2cc(Cl)ccc12` (stereo not shown) [Chloroquine diphosphate (CQ), Chloroquine diphosphate], the “inhibition of A.2.5 infection in Calu-3 compared to camostat (CAM)” value in assay [1] (Calu-3) is given as “two-fold less”. Besides, the “period of most of the inhibitory effect, Delta” value in the assay with SARS-CoV-2 Delta variant [2] is recorded as “during the adsorption phase”. Besides, the “less susceptible to CQ than to PQ, Delta” value with SARS-CoV-2 Delta variant [2] (Vero-E6, same time interval) is 2–4 orders of magnitude. The IC50 with SARS-CoV-2 A2.5 variant [3] (setting [9]) stood at 6.3 µM. The IC50 with SARS-CoV-2 A2.5 variant [3] (setting [10]) turned out to be 2 µg/mL. For the same molecule, in the assay on SARS-CoV-2 A2.5 variant [3] (setting [11]), the IC50 was found to be 6.27 µM. In the assay with SARS-CoV-2 A2.5 variant [3] (setting [12]), the IC90 worked out at 56.7 µM. In addition, the IC90 in the assay on SARS-CoV-2 A2.5 variant [3] (setting [13]) came out at 18.1 µg/mL. Besides, in assay [4], the “antiviral inhibition at MOI = 0.00001” value was at least 20%, the “less potent against the Delta compared to the A2.5 variant” value worked out at 20% and the “% inhibition Vero E6 Delta MOI 0.0001” value is 44%. Besides, in the assay with SARS-CoV-2 Delta variant [5], the “antiviral effect, treatment 1 hour post-infection, Delta” value is recorded as “dose-dependent antiviral effect” and the “effect on viral replication, treatment 1 hour pre-infection, Delta” value is reported as “did not influence the viral replication”. In addition, the “period of most of the inhibitory effect, A2.5” value with SARS-CoV-2 A2.5 variant [6] is “during the adsorption phase”. The “less susceptible to CQ than to PQ, A2.5” value in the assay with SARS-CoV-2 A2.5 variant [6] (Vero-E6, same time interval) is given as 2–4 orders of magnitude.

Regarding `CCN(CCO)CCCC(C)Nc1ccnc2cc(Cl)ccc12` (stereo not shown) [Hydroxychloroquine sulfate (HCQ), Hydroxychloroquine sulfate], in assay [1], the “% inhibition Calu-3 A2.5 MOI 0.01” value came out at 16%. Further, the “times more potent against A2.5 than Delta” value in assay [7] (Vero-E6) came out at 1.8 times. In assay [7], the “% inhibition Vero E6 A2.5 MOI 0.01” value was found to be 29%. The IC50 in the assay on SARS-CoV-2 A2.5 variant [3] (setting [9]) came out at 12.6 µM; with SARS-CoV-2 A2.5 variant [3] (setting [10]) it was 5.8 µg/mL; with SARS-CoV-2 A2.5 variant [3] (setting [11]), 13.3 µM. In addition, the IC90 came out at 113 µM in the assay with SARS-CoV-2 A2.5 variant [3] (setting [12]) and 38.1 µg/mL in the assay on SARS-CoV-2 A2.5 variant [3] (setting [13]). The “less potent against the Delta compared to the A2.5 variant” value in assay [4] came out at 40%. In assay [4], the “% inhibition Vero E6 Delta MOI 0.0001” value was 43%. Further, in assay [4], the “% inhibition Vero E6 Delta MOI 0.01” value turned out to be 10%. Besides, the “% inhibition Calu-3 Delta MOI 0.01” value is 9% in assay [8] and “effective” in assay [8] (listed as HCQ).

In the case of `CC[C@H](C)[C@H]1O[C@]2(CC[C@@H]1C)C[C@@H]1C[C@@H](C/C=C(\C)[C@@H](O[C@H]3C[C@H](OC)[C@@H](O[C@H]4C[C@H](OC)[C@@H](O)[C@H](C)O4)[C@H](C)O3)[C@@H](C)/C=C/C=C3\CO[C@@H]4[C@H](O)C(C)=C[C@@H](C(=O)O1)[C@]34O)O2` [Ivermectin (IVM), Ivermectin], the “% inhibition Calu-3 A2.5 MOI 0.01” value in assay [1] worked out at 15%. Further, in assay [7], the “% inhibition Vero E6 A2.5 MOI 0.01” value turned out to be 5%. Also, in the assay with SARS-CoV-2 A2.5 variant [3], the “IC50%” value is listed as 63.6 µg/mL (≈ 72.7 µM). Further, the IC50 in the assay on SARS-CoV-2 A2.5 variant [3] (read-out: IC50%) amounted to 72.7 µM. For the same molecule, in assay [4], the “% inhibition Vero E6 Delta MOI 0.0001” value is 19% and the “% inhibition Vero E6 Delta MOI 0.01” value is 11%. For the same molecule, the “% inhibition Calu-3 Delta MOI 0.01” value in assay [8] is reported as 17%.

Regarding `COc1cc(NC(C)CCCN)c2ncccc2c1` (stereo not shown) [Primaquine Phosphate (PQ), Primaquine Phosphate], in assay [1], the “% inhibition Calu-3 A2.5 MOI 0.01” value came out at 10%. In the assay with SARS-CoV-2 Delta variant [2], the “effect on viral load, time of addition, Delta” value is recorded as “substantially lower viral load” and the “period of most of the inhibitory effect, Delta” value is on record as at most 5 h. The IC50 in the assay with SARS-CoV-2 A2.5 variant [3] (setting [9]) came out at 15.3 µM. The IC50 in the assay with SARS-CoV-2 A2.5 variant [3] (setting [10]) is 5 µg/mL. In addition, the IC50 in the assay with SARS-CoV-2 A2.5 variant [3] (setting [11]) was found to be 19.3 µM. The IC90 in the assay with SARS-CoV-2 A2.5 variant [3] (setting [12]) was found to be 138 µM. Besides, in the assay with SARS-CoV-2 A2.5 variant [3] (setting [13]), the IC90 came out at 35.7 µg/mL. In assay [4], the “% inhibition Vero E6 Delta MOI 0.0001” value was 2% and the “% inhibition Vero E6 Delta MOI 0.01” value is listed as 18%. In addition, in the assay on SARS-CoV-2 Delta variant [5], the “antiviral effect, treatment 1 hour post-infection, Delta” value is reported as “dose-dependent antiviral effect” and the “effect on viral replication, treatment 1 hour pre-infection, Delta” value is recorded as “did not influence the viral replication”. For the same molecule, in the assay with SARS-CoV-2 A2.5 variant [6], the “effect on viral load, time of addition, A2.5” value is reported as “substantially lower viral load” and the “period of most of the inhibitory effect, A2.5” value is on record as at most 3 h.

These data come from article PMC12175177 (Frontiers in Pharmacology, 2025).
